By melting point is commonly meant the temperature, or range, at which the solid turns liquid. Usually ED50 stands for the dose that gives a 50% effect, or the effect in half of the subjects.

In data set [1] the test system is acetic acid-induced writhes. Kind of data set: Writhing test (acetic acid). It is filed as in vivo, ICR mice. Conditions: mouse, oral. The protocol:
To examine the pain relief effect of the sulfamate derivative compounds, a writhing test was referring to Fischer, L. G. et al. (2008).
ICR mice (male, 24-28 g; Orient Bio, Korea) were habituated before test in test room for 1 hour. Animals were fasted for 2 hr before administration of compounds. […] All compounds were dissolved in a vehicle of 30% (v/v) PEG 400 or 20% (v/v) Tween 80. The control group was treated with the vehicle without compounds.
[…] Animals were habituated in the cage for 5 min. 5 min after habituation, the number of writhes (abdominal constriction) was counted for 15 minutes referring to Korzeniewska-Rybicka, I. et al. (1998) and compared with that of the control.
A general note: Writhing tests count abdominal constrictions after an irritant is injected.

Another data set relates to SNL model. Kind of data set: Antiallodynic activity in the Chung model (SNL, Spinal Nerve Ligation; von Frey). It counts as in vivo, Sprague-Dawley rats. The protocol:
Male Sprague-Dawley rats (200-220 g, Orient Bio, Korea) were habituated for 1 week before the experiment and allowed free access to food and water throughout the experimentation. Room temperature and humidity were maintained at 24±2° C. and 50±10%, respectively. The neuropathic surgery (SNL, Spinal Nerve Ligation) model was done as described in Kim and Chung (1992). Briefly, an animal was put under gaseous anesthesia with isoflurane and NO2 with a 4:4 flow ratio. The left lumbar spinal nerves L5 and L6 were isolated and tightly ligated with 4-0 silk thread. The wound was treated with a gentamicin antibiotic solution (4 mg/kg, 4 ul/g by bodyweight), and the wound muscle was closed with Catgut® chrome 4/0 thread and the skin was closed with Dafilon 4/0 thread. Sham controls were prepared in the same manner with the spinal nerves were exposed, but no ligated L5 and L6 nerves. Preparation of the vehicle controls were identical to the group treated with compound, except for administration of vehicles without compound in the vehicle control group.
Tactile sensitivity (mechanical allodynia) was evaluated using von Frey monofilaments before and after treatment and animals the animals were included in the study only if the withdrawal threshold value was less than 4 g. One week after surgery, SNL-operated animals (n=4˜6), sham-operated animals (n=4˜10) and vehicle-operated animals (n=4˜13) were tested for tactile sensitivity with von Frey monofilaments with 3 trials in each animal. All animals were placed in a stainless steel mesh chamber and habituated for 30 min in the test cage. The tactile sensitivity for ipsilateral hind paw was measured using the up-and-down method (Dixon, 1980) with seven von Frey monofilaments (0.4, 1, 2, 4, 6, 8, and 15 g) in 3 trials. The tactile sensitivity test was followed by Dixon's method (Dixon, 1980). The 50% paw withdrawal threshold for each paw was calculated using the following formula: [Xth] log=[vFr] log+ky where [vFr] is the force of the last von Frey used, k=0.2249 which is the average interval (in log units) between the von Frey monofilaments, and y is a value that depends upon the pattern of withdrawal responses (Dixon, 1980).
All animals were fasted for 18 h before the administration of the compounds. The antiallodynic effect of the compounds were evaluated at the various doses (n=5˜6), orally administered in a volume of 5 ul/g by bodyweight in a vehicle of 30% (v/v) PEG 400 (Example 7) or 20% (v/v) Tween 80 (Examples 5 and 6) or saline. […]
The relative values compared to the sham group (% control) were calculated and are shown in Table 5, which show an antiallodynic effect of the test compounds in the SNL model in rats.

The subject of a further data set is CFA-induced pain model. As to the kind of experiment: Antiallodynic activity on Complete Freund's Adjuvant (CFA)-induced inflammatory pain model (von Frey). It counts as in vivo, Sprague-Dawley rats. Conditions: Rattus norvegicus, ip, read-out: CFA model: effect (%) compared to control. The protocol:
Male, Sprague-Dawley rats (200-220 g, Nara Bio, Korea) were habituated for 1 week before surgery and allowed free access to food and water throughout the experimentation. Room temperature and humidity were maintained at 24±2° C. and 50±10%, respectively.
CFA-induced inflammatory pain was induced by the procedure of Nagakura et al. (2003) and Gregory P. et al. (2010) with minor modifications. CFA (sigma, USA) was injected into the left plantar with a 100 ul volume under gaseous anesthesia with isoflurane and NO2 with a 4:4 flow ratio. Sham controls were injected with 100 ul of saline and preparation of the vehicle controls were identical to the group treated with compound, except for administration of vehicles without compound in the vehicle control group.
Tactile sensitivity (mechanical allodynia) was evaluated using von Frey monofilaments before and after treatment, and the animals were included in the study only if the withdrawal threshold value was less than 4 g. One week after surgery, CFA-infused animals (n=4˜6), sham-operated animals (n=12), and vehicle-operated animals (n=17) were tested for tactile sensitivity with von Frey monofilaments, with 3 trials for each animal. All animals were placed in a stainless steel mesh chamber and habituated for 30 min in the test cage. The tactile sensitivity for the ipsilateral hind paw was measured using the up-and-down method (Dixon, 1980) with seven von Frey monofilaments (0.4, 1, 2, 4, 6, 8, and 15 g) in 3 trials. The tactile sensitivity test was followed by Dixon's method (Dixon, 1980). The 50% paw withdrawal threshold for each paw was calculated using the following formula: [Xth] log=[vFr] log+ky where [vFr] is the force of the last von Frey used, k=0.2249 which is the average interval (in log units) between the von Frey monofilaments, and y is a value that depends upon the pattern of the withdrawal responses (Dixon, 1980).
The antiallodynic effect of the compound of Example was evaluated at the doses of 10, 30 and 60 mg/kg (n=4˜6), and were intraperitoneally administered in a volume of 5 ul/g by bodyweight in a vehicle of 30% (v/v) PEG. […]
The relative values compared to the sham (% control) were calculated and are shown in Table 4, which show an antiallodynic effect of the compound of examples in the CFA-induced pain model in rats.

Data set [2] concerns Post operation-induced pain model. Kind of data set: Antiallodynic activity on post operative pain-induced pain model (von Frey). It counts as in vivo, Sprague-Dawley rats. As to conditions: rat, intraperitoneal, 18.9 mg/kg administered, time not given. The protocol:
Male Sprague-Dawley rats (Orient Bio, Korea), 300-320 g, total of 201 rats were used (details in Table 7). Rats were habituated at least 3 days before surgery and free access to food and water (room temperature and humidity were maintained at […] and 50±10%, respectively). The process of performing the post-operation model's surgery was adapted from Brennan et al (1996). At first, rats with allodynia (threshold valueless than 8 g) were excluded in Pre-von Frey Test. During the post-operation surgery, rats were anesthetized under gaseous anesthesia with 2% isoflurane. Rats were laid face down on a plate fixed at 37° C. to prevent against hypothermia. The ipsilateral plantar aspect (left side) of the hind paw was prepared in a sterile manner with a 10% povidone-iodine solution. A longitudinal incision (1 cm) (FIG. 2-A) was made with a blade (number 11) through the skin and fascia of the ipsilateral plantar aspect of the foot, starting from 0.5 cm below the proximal edge of the heel and extending toward the toes. Rats' plantar muscles were elevated and incised longitudinally (FIG. 2-B). After hemostasis with gentle pressure, the skin was opposed with 2 mattress sutures (4-0 Dafilon) (FIG. 2-C). The wound site was covered with a 10% povidone-iodine solution gauze and injected with antibiotics (gentamicin, 8 mg/kg, ip). The sutures were removed under halothane anesthesia approximately 30 hours later, at the end of post-operative day 1.
After 2-3 days of recovery, rats with a good response (threshold less than 4 g) in Pre-von Frey Test were selected. According to this response, we made three groups with each group having equal average responses: Group 1, post-operation and drug treated; Group 2, post-operation and vehicle treated; Group 3, no post-operation and vehicle treated. In this study, Group 3 was the sham control (positive) group. The group 2 was used to check for possible failures to generate post-operative pain.
For efficacy measure, the threshold value of group C was assigned 100% efficacy, and the percentage of the threshold values of group A compared to group C (for each different dose level) were calculated as the efficacies. Base on these efficacy values, ED50 was calculated using log fitting. If there was no clear ED50, then we marked the percent efficacy at the highest tested dose or larger than highest tested dose.
For pain threshold test, all animals were placed in a stainless steel meshed chamber and habituated for 30 min in the test box. The tactile sensitivity of the ipsilateral hind paw was measured using the up-and-down method (Dixon, 1980) with seven von Frey monofilaments (0.4, 1, 2, 4, 6, 8, and 15 g) using 3 trials. The 50% paw withdrawal threshold for each paw was calculated using the following formula: [Xth] log=[vFr] log+ky, where [vFr] is the force of the last von Frey filament used, k=0.2249 which is the average interval (in log units) between the von Frey monofilaments, y which is a value that depends upon the pattern of withdrawal responses, and Xth which is the threshold value (Dixon, 1980).
Drugs were dissolved 30% PEG400 for example 60, 0.9% saline for Pregabalin, 20% Tween80 for Tylenol, 0.9% saline for Topiramate. These vehicles were selected depending on the compound's solubility. Intraperitoneal injection (5 μl/g) was done for all drugs.
The relative values compared to the sham (% control) were calculated and shown in Table 8, which show an antiallodynic effect of the compound of examples on Post operation-induced pain model in rats.

[3] abbreviates: Rattus norvegicus, po, read-out: SNL model: effect (%) compared to control, rat, oral, 3.5 mg/kg administered, time not given.

Read-outs that look alike come from different tables or passages of the source.

For `CC1(C)Oc2ccccc2C(COS([NH-])(=O)=O)O1.[Na+]` (centres unmarked) (hydrate or solvate) [Example 60, Sodium (((2,2-dimethyl-4H-benzo[d][1,3]dioxin-4-yl)methoxy)sulfonyl)amide Trihydrate], the melting point is 81 to 86 °C.
Take `CC1(C)Oc2ccccc2C(COS(N)(=O)=O)O1` (racemic) [Example 3, (2,2-dimethyl-4H-benzo[d][1,3]dioxin-4-yl))methyl sulfamate]: the “Writh test: effect (%) compared to control” value in data set [1] (80 mg/kg administered, 0.5 h) was “(63.9%, 0.5 h)”. The response vs control in vivo at 3.5 mg/kg in the data set on SNL model (rat, oral, 3.5 mg/kg administered, 0.5 h, read-out: SNL model: effect (%) compared to control) amounted to 35%.
`CC1(C)Oc2ccccc2[C@H](COS(N)(=O)=O)O1` [Example 1, ((R)-2,2-dimethyl-4H-benzo[d][1,3]dioxin-4-yl)methyl sulfamate]: the median effective dose (ED50) in data set [1] (0.25 h, read-out: Writh test: ED50) stood at 56.8 mg/kg; in the data set with SNL model (rat, oral, 1 h, read-out: SNL model: ED50) it was 9.9 mg/kg.
Take `CC1(C)Oc2ccc(Cl)cc2[C@@H](COS([NH-])(=O)=O)O1.[Na+]` [Example 62, Sodium (S)-(((6-chloro-2,2-dimethyl-4H-benzo[d][1,3]dioxin-4-yl)methoxy)sulfonyl)amide]: the melting point lay within 133.8 to 135.3 °C. For the same compound, in the data set on SNL model (setting [3]), the response vs control in vivo at 3.5 mg/kg is 32.6%.
Compound `CC1(C)Oc2ccc(Cl)cc2C(COS([NH-])(=O)=O)O1.[Na+]` (centres unmarked) [Example 63, Sodium (((6-chloro-2,2-dimethyl-4H-benzo[d][1,3]dioxin-4-yl)methoxy)sulfonyl)amide] yielded a melting point of 129.3 to 132.3 °C. Also, the response vs control in vivo at 25 mg/kg with CFA-induced pain model turned out to be 16.9%. In addition, the “Post Operation: effect (%) compared to control” value in data set [2] is on record as “(26.6%)”. Further, in the data set on SNL model (setting [3]), the response vs control in vivo at 3.5 mg/kg is 32.9%.
With `[NH-]S(=O)(=O)OC[C@@H]1OC2(CCCC2)Oc2ccccc21.[Na+]` [Example 64, Sodium (R)-(((4H-spiro[benzo[d][1,3]dioxine-2,1′-cyclopentan]-4-yl)methoxy)sulfonyl)amide], the melting point is 132.9 to 134.9 °C. Further, the response vs control in vivo at 3.5 mg/kg with SNL model (setting [3]) worked out at 22.5%.
For `[NH-]S(=O)(=O)OCC1OC2(CCCC2)Oc2ccccc21.[Na+]` (centres unmarked) [Example 66, Sodium (((4H-spiro[benzo[d][1,3]dioxine-2,1′-cylcopentan]-4-yl)methoxy)sulfonyl)amide], the melting point lay within 145.5 to 148.9 °C. Also, the response vs control in vivo at 3.5 mg/kg in the data set on SNL model (Rattus norvegicus, po, 0.5 h, read-out: SNL model: effect (%) compared to control, rat, oral, 3.5 mg/kg administered, 0.5 h) was determined as 59.5%.
On to `[NH-]S(=O)(=O)OCC1OC2(CCCC2)Oc2ccc(Cl)cc21.[Na+]` (centres unmarked) [Example 67, Sodium ((6-chloro-(4H-spiro[benzo[d][1,3]dioxine-2,1′-cyclopentan]-4-yl)methoxy)sulfonyl)amide], for which the melting point was in the range of 68.6 to 72.3 °C. Also, the response vs control in vivo at 3.5 mg/kg with SNL model (setting [3]) was 49.1%.

(Values after patent publication US10081615B2, “Sulfamate derivative compounds for use in treating or alleviating pain” (Bio-Pharm Solutions Co., Ltd., priority 2013, dated 2018).)
